From patent US20160144031A1, “Photo-Responsive Compounds” (priority 2013, published 2016)

Assays:
[1] = Photolysis rate comparison: Xe flash lamp, 546±10 nm, conversion to hydroxocobalamin monitored at 350 nm; format: physicochemical; details: 10 μM
Method: General procedure: Photolysis was performed using an Oriel Xe flash lamp (800 mJ, 62 Hz) with a selective bandpass filter for 546±10 nm. The conversion of alkylcobalamin to hydroxocoabalmin was determined by monitoring the absorption of the mixture at 350 nm using Perkin Elemer Lambda 2 UV/Vis spectrophotometer. (Taylor, R. T.; Smucker, L.; Hanna, M. L.; Gill, J. Arch. Biochem. Biophys. 1973, 156, 521-533.)

[2] = Photolysis (Xe flash lamp, bandpass filters) and dark storage assessed by UV-Vis and LC/MS; format: physicochemical; details: for photolysis at 546 nm (LC/MS): 546±10 nm (20 min); for photolysis at 546 nm (LC/MS) / photolysis at 646 nm (UV-Vis, LC/MS) / photolysis at 730 nm (LC/MS) / photolysis at 780 nm (LC/MS): 10 μM; for photolysis at 646 nm (UV-Vis, LC/MS): 646±10 nm (20 min); for photolysis at 730 nm (LC/MS): 730±10 nm (150 min); for photolysis at 780 nm (LC/MS): 780±10 nm (3 h)
Method: […] The conversion of alkylcobalamin to hydroxocoabalmin was determined by monitoring the absorption of the mixture at 350 nm using Perkin Elemer Lambda 2 UV/Vis spectrophotometer. (Taylor, R. T.; Smucker, L.; Hanna, M. L.; Gill, J. Arch. Biochem. Biophys. 1973, 156, 521-533.)
[…] The resulting sample (100 μL) was analyzed by LC/MS using a linear gradient binary solvent system (solvent A: 0.1% formic acid/H2O; solvent B: 0.1% formic acid/CH3CN) with a ratio of A:B that varied from 97:3 (0-5 min) to 3:97 (5-18 min).

[3] = administered by IV; cited from earlier work
[4] = system: HeLa cells; experiment: Treatment of HeLa cells with colchicine (tubulin staining); format: cell-based; details: increasing colchicine
Method: Treatment of HeLa cells with colchicine. […] Cells are washed 2×1 mL with PBS and blocked for 1 h in 5% donkey serum. […] Metamorph software is employed for imaging analysis.

Row | Molecule | photolysis at 546 nm (LC/MS) [2] | photolysis at 646 nm (UV-Vis, LC/MS) [2] | photolysis at 730 nm (LC/MS) [2] | photolysis at 780 nm (LC/MS) [2] | also measured
1 | C/C1=C2/[N-]C([C@H](CC(N)=O)[C@@]2(C)CCC(=O)NC[C@@H](C)OP(=O)([O-])O[C@H]2[C@@H](O)[C@@H](n3cnc4cc(C)c(C)cc43)O[C@@H]2CO)[C@]2(C)N=C(/C(C)=C3N=C(/C=C4N=C1[C@@H](CCC(N)=O)C\4(C)C)[C@@H](CCC(N)=O)[C@]\3(C)CC(N)=O)[C@@H](CCC(N)=O)[C@]2(C)CC(N)=O.[CH2-][C@H]1O[C@@H](n2cnc3c(N)ncnc32)[C@@H](O)[C@@H]1O.[Co+3] [AdoCbl, Coenzyme B12, reference compound] | produces these products |  |  |  | rate of photolysis at 546 nm [1]: 1.7±0.2 μM^−1/m; photolysis at wavelengths beyond 600 nm (LC/MS) [2]: resistant to photolysis
2 | C/C1=C2/[N-][C@H]([C@H](CC(N)=O)[C@@]2(C)CCC(=O)NC[C@H](C)OP(=O)([O-])O[C@H]2[C@@H](O)[C@@H](n3cnc4cc(C)c(C)cc43)O[C@@H]2CO)[C@]2(C)N=C(/C(C)=C3N=C(/C=C4N=C1[C@@H](CCC(N)=O)C\4(C)C)[C@@H](CCC(N)=O)[C@]\3(C)CC(N)=O)[C@@H](CCC(N)=O)[C@]2(C)CC(N)=O.[CH3-].[Co+3] [MeCbl, methylcobalamin] |  |  |  |  | photolysis rate [1]: 31700 ± 3300 M⁻¹ s⁻¹
3 | αMSH: 13 amino acid α-melanocyte stimulating hormone |  |  |  |  | half life [3]: only a few minutes
4 | Coenzyme B12-ATTO 725 Conjugate [AdoCbl-3] | complete photolysis | partial photolysis | complete photolysis | not at 780 nm | 
5 | Coenzyme B12-Dylight® 800 Conjugate [AdoCbl-4] | generated the expected adenosine products | resistant to photolysis | Partial photolysis | generated the expected adenosine products | 
6 | coenzyme B12-TAMRA conjugate [AdoCbl-1] | produces these products |  |  |  | rate of photolysis at 546 nm [1]: 2.9±0.3 μM^−1/m; photolysis at wavelengths beyond 600 nm (LC/MS) [2]: resistant to photolysis
7 | Coenzyme B12-SulfoCy5 Conjugate [AdoCbl-2] | produced adenosine products | produced adenosine products | unaffected | unaffected | 
8 | COc1cc2c(c(OC)c1OC)-c1ccc(OC)c(=O)cc1[C@@H](NC(C)=O)CC2 [colchicine] |  |  |  |  | effect on tubulin networks [4]: tubulin networks become disrupted
